Where two headings read alike, the source gives them in different places.
Columns and labels:
aldehyde oxidase (AOX) [1] = test: Metabolism kinetics of DACA and phthalazine in rabbit cytosol; details: for kcat: rabbit cytosol
aldehyde oxidase (AOX) [2] = target: T1, aldehyde oxidase (AOX) (Homo sapiens, UniProt Q06278); test: Metabolism kinetics of DACA and phthalazine in human cytosol
T1 sequence (Q06278 1-1338): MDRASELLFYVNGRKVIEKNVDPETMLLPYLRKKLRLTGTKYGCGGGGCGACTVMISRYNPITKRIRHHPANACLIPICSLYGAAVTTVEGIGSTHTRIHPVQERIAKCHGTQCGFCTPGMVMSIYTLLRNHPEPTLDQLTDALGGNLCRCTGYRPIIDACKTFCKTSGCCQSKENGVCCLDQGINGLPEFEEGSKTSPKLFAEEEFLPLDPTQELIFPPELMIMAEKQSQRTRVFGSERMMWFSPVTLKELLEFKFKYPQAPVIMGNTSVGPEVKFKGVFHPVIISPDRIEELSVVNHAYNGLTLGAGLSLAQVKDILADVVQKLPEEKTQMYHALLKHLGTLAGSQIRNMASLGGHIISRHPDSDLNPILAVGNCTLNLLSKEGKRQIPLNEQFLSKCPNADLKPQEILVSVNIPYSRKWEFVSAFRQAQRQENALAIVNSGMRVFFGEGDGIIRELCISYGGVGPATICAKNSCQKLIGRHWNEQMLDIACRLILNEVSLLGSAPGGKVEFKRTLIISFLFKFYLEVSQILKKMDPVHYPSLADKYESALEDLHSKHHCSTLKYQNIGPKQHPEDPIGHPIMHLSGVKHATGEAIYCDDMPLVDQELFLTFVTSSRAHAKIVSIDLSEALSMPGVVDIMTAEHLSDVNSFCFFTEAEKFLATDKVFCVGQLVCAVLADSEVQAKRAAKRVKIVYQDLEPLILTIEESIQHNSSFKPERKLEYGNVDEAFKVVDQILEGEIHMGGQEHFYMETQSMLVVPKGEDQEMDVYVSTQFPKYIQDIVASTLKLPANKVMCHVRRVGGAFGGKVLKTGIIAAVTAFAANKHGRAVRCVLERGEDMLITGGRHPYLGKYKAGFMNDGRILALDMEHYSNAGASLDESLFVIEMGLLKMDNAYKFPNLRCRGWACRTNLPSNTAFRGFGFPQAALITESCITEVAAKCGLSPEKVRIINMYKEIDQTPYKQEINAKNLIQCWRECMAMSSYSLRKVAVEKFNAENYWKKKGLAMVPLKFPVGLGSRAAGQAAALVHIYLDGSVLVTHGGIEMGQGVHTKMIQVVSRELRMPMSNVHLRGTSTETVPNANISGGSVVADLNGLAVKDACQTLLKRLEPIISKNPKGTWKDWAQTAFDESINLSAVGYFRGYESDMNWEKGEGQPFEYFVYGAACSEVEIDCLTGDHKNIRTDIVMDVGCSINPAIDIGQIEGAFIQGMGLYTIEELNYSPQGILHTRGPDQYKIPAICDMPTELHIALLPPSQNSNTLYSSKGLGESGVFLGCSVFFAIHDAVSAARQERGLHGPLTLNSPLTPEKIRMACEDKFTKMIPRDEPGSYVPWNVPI

aldehyde oxidase (AOX) [3] = target: T1, aldehyde oxidase (AOX)
aldehyde oxidase (AOX) [4] = tested on: aldehyde oxidase (AOX)
[5] = substrate: CN(Cc1cnc2nc(N)nc(N)c2n1)c1ccc(C(=O)N[C@@H](CCC(=O)O)C(=O)O)cc1
[6] = substrate: c1ccc2cnncc2c1; test: cells, lysate or membranes named; details: other: human cytosol; unit not given

Q: Which results are given for c1ccc2cnncc2c1 [phthalazine]?
A: Km (aldehyde oxidase (AOX) [1]; New Zealand, rabbit, cytosol): 23 µM; kcat (aldehyde oxidase (AOX) [1]): 16,000 min^−1

Q: CN(C)CCNC(=O)c1cccc2cc3ccccc3nc12 [DACA] was tested. Which kcat (aldehyde oxidase (AOX) [1]) did it give?
A: Its kcat is 182 min⁻¹.

Q: And the kcat (aldehyde oxidase (AOX) [2])?
A: The kcat was 2.22 s⁻¹.

Q: What about the Km (aldehyde oxidase (AOX) [3]) of the same molecule?
A: Its Km is 7 µM.

Q: And the Km (aldehyde oxidase (AOX) [4])?
A: The Km was 2 µM.

B1: AOX1 (Homo sapiens) (protein)
chain: T1 sequence (Q06278 1-1338)
Q: What does the source list for B1?
A: Km [5]: 2800 µM; Vmax [5]: 40 to 70 pmol/min/mg; kcat/Km [5]: 15 M⁻¹ s⁻¹

B2: aldehyde oxidase (AOX) (Homo sapiens) (protein)
chain: T1 sequence (Q06278 1-1338)
Q: How did the kcat [6] turn out when B2 was run?
A: Its kcat is 4.37 s⁻¹.

B3: AOX1 (Macaca mulatta) (protein)
chain: MDRASELLFYVNGRKVIEKNVDPETMLLPYLRKKLRLTGTKYGCGGGGCGACTVMISRYNPITNRIRHHPANACLIPICSLYGTAVTTVEGIGSTHTRIHPVQERIAKCHGTQCGFCTPGMVMSIYTLLRNHPEPTLDQLTDALGGNLCRCTGYRPIIDACKTFCETSGCCQSKENGVCCLDQGINGLPEFEEGSKTSPKLFAEEEFLPLDPTQELIFPPELMIMAEKQPQRTRVFGSERMMWFSPVTLKELLEFKFKYPQAPVIMGNTSVGPQVKFKGVFHPVIISPDRIEELSVVNRTHNGLTLGAGLSLAQVKDILADVVQKLPEEKTQTYHALLKHLGTLAGSQIRNMASLGGHIISRHPDSDLNPILAVGNCTLNLLSKEGKRQIPLNEQFLSKCPNADLKPQEILVSVNIPYSRKLEFVSAFRQAQRQENALAIVNSGMRVFFGEGHGIIRELSISYGGVGPATICAKNSCQKLIGRHWNEEMLDTACRLVLEEVSLSGSAPGGKVEFKRTLIISFLFKFYLEVSQILKKMDPIHYPSLADKYESALEDLHSKHHCSTLKYQHMGPKQHPEDPIGHPIMHLSGVKHATGEAIYCDDMPPVDQELFLTFVTSSRAHAKIVSIDLSEALSMPGVVDVITAEHLSDVNSFCFFTEAEEFLATDKVFCVGQLVCAVLADSEVQAKQAAKQVKIVYQDLEPLILTIKEAIQHNSFFEPERKLEYGNVDEAFKVVDQILEGEIHMGGQEHFYMETQSMLVVPKGEDQEMDVYVSTQFPKYIQDIVASTLKLPANKVMCHVKRVGGAFGGKAFKTGVIAAVTAFAANKHGRAVRCVLERGEDMLITGGRHPYLGKYKAGFMNDGRILALDMEHYSNAGNSLDESLLVIEMGLLKMDNAYKFPNLRCRGWACRTNLPSNTAFRGFGFPQAGLITESCIMEVAAKCGLSPEKVRMINMYKEIDQTPYKQEINAKNLIQCWRECMAVSSYSLRKAAVEKFNAENYWKKKGLAMVPLKYPVGLGSRAAGQAAALVHIYLDGSVLVTHGGIEMGQGVHTKMIQVVSRELGMPISNVHLRGTSTETVPNANVSGGSVVADLNGLAVKDACQILLKRLEPIISKNPKGTWKDWAQTAFDESISLSAVGYFRGYESDINWEKGEGHPFEYFVYGAACSEVEIDCLTGDHKNIRTDIVMDVGCSINPAIDIGQIEGAFIQGMGLYTIEELNYSPQGVLHTRGPDQYKIPAICDTPTEFHISLLPPSENSNTLYSSKGLGESGVFLGCSVFFAIHDAVSAARRERGLHGPLSLNSPLTPEKIRMACEDKFTKMIPRDEPGSCVPWNVPI
Q: For B3, which Km [5] is on record?
A: The Km was 323 ± 123 µM.

Reference: publication PMC4574636 (Biochemical pharmacology, 2015)
